The results in this text go back to US20070238146A1, “Kinetic metabolic assay for antifungal susceptibility testing” (priority 2006, published 2007).

Assay type in all cases: cell-based, Candida albicans
Assay [1] relates to planktonic C. albicans cells. As to the kind of experiment: CFU assay of planktonic cells after AmB treatment. Particulars: exponential phase planktonic cells. As for the experimental part:
CFU assay. CFU were estimated for both AmB treated and untreated planktonic sample. 100 μl planktonic C. albicans cells in PBS were serially diluted in 2 ml cuvettes (catalog no. BTCUV, Biotrace Inc.). The serial dilution was 10-fold across each cuvette. The required number of serial dilutions per sample were judged based on trial and error. A volume of 100 μl from each serially diluted cuvette was spread as a separate lane on an agar plate. […] Plates were incubated at 37° C. for 24 hours. CFU were estimated from dilutions whose numbers fell in the range of 10 to 100 colonies per lane. The appropriate dilution factor was multiplied to estimate the final viable cell concentration for every sample.
AmB treatment. AmB was from Biosource International Inc. (Fungizone with 0.00205% sodium deoxycholate solubilizing agent). A standard broth dilution method was used to assess the AmB MlC of CA-1, with ATCC 24433 used as a reference strain (32). AmB treatment of planktonic cells and shear-removed biofilm was preformed in 1.5-ml centrifuge tubes. The tubes contained a total working volume of 450 μl. […] This enabled recording of absorbance data for the metabolic indicator in real time without perturbing the well contents. […]
(ii) Calculation of percent viability. Viability in terms of CFU was calculated by using the kinetic parameters estimated for each sample and the corresponding calibrations. […]

Assay [2] relates to C. albicans biofilm basal blastospores. The experiment in a line: KMA for in situ biofilm susceptibility testing (alamarBlue, modified medium, t-threshold). As for the experimental part:
Biofilm cultures. Biofilms were grown in a tubular flow cell (TF). Silicone tubing (Cole-Panmer; catalog no. EW-95802-08) with an inner diameter of 4.78 mm, an outer diameter of 6.35 mm, a wall of 0.79 mm, and a length of 60 cm constituted the biofilm-growing region of the TF. The source of growth medium for the TF was a 2-liter Erlenineyer flask. A bubble trap was placed between the Erlenmeyer flask and the TF to prevent passage of air bubbles during biofilm growth. Flow rates of 1.17 ml/min (shear rate, 109.5 s^−1) were maintained by a peristaltic pump coupled at the effluent end of the TF. The residence time for the volume of liquid contained in the tubular reactor portion of the flow system (20-cm length of tubing) was 3 min. This condition ensured that the contribution to the cell population in the TF from cells in the planktonic mode of growth (doubling time, approximately 80 min) was negligible. After sterilization by autoclaving, the entire setup was placed horizontally on a grilled shelf in an incubator at 37° C. The TF was filled with growth medium before being inoculated with cells. The inoculum was prepared from a 24-h planktonic culture at a concentration of 10^8 cells/ml in 0.1 M phosphate-buffered saline (PBS, pH 7) buffer. It was fed into the TF from the effluent end by reversing the direction of flow. Flow was then discontinued for 1 h. After the 1 -h inoculation period, flow was resumed for 36 h. At the end of this culture period, the section of tubing in which the biofilm grew was clamped at both ends and removed by cutting the tubing with a sterile blade. The liquid column was drained into a petri dish by moving the tubing to a vertical position and releasing the clamps. The tubing was then rinsed with PBS buffer equivalent to one tube volume. The fraction of biofilm collected in the petri dish by this procedure is referred to as the shear-removed biofilm. […]
AmB treatment. […] This enabled recording of absorbance data for the metabolic indicator in real time without perturbing the well contents. […]

The test system of assay [3] is planktonic C. albicans cells. As to the kind of experiment: kinetic metabolic assay (KMA, alamarBlue) of planktonic cells after 1 h AmB treatment. As for the experimental part:
Planktonic cultures. Cultures were grown aerobically in 250-ml Erlenmeyer flasks containing 100 ml growth medium. The flasks were placed in a shaker incubator at 37° C. and 160 rpm for the desired period of growth. C. albicans grew as budding yeast under these conditions. Exponential phase cells were harvested after a 5-h growth period and stationary-phase cells at 96 h.
AmB treatment. AmB was from Biosource International Inc. (Fungizone with 0.00205% sodium deoxycholate solubilizing agent). A standard broth dilution method was used to assess the AmB MlC of CA-1, with ATCC 24433 used as a reference strain (32). AmB treatment of planktonic cells and shear-removed biofilm was preformed in 1.5-ml centrifuge tubes. The tubes contained a total working volume of 450 μl. AmB dissolved in 200 μl of 0.1 M PBS (pH 7.0), and cells resuspended in 250 μl of PBS adjusted to an optical density of 0.05 (A660) were added to the 1.5-ml tube. After more than 10 preliminary experiments, the time between recovery of the shear-removed biofilm in the petri dish and exposure to AmB was reduced to approximately 5 min. The positive controls had no AmB, and the negative controls had no cells. For AmB treatment of the basal blastospore population, each sample consisted of a 0.5-cm long section of tubing cut from the TF. Each tubing sample was positioned in the 96-well plate (Corning Inc.; Costar 3370) such that its outer wall snugly fit along the wall of the well in the 96-well plate. This enabled recording of absorbance data for the metabolic indicator in real time without perturbing the well contents. The 0.5-cm tubing samples were randomly placed in the 96-well plate in order to randomize the distribution between treated samples and untreated controls. Solution (225 μl) containing AmB in 0.1 M PBS was added to wells to completely submerge the 0.5-cm tubing during the AmB treatment phase. Untreated samples were the positive controls. Three independent TF experiments were run, generating 24 samples per AmB concentration and 61 untreated controls for the basal blastospores. Sterile tubing was used as a negative control. In every experiment, a minimum of four negative controls were used. The AmB treatment period was 1 h across all cell populations. During AmB exposure, the 1.5-m1 tubes (containing either the planktonic or shear-removed populations) and 96 -well plates (containing the basal blastospores) were placed in a shaker incubator at 37° C. and 150 rpm. […]
Kinetic curves. Kinetic data of the reduction of metabolic indicators and turbidimetric changes were recorded for both AmB treated and untreated samples. […] The kinetic assay in the 96 well format was run for 24 h at 37° C. with continuous shaking in a Synergy-HT plate reader (Biotek Inc.). […]

Each structure is given as a SMILES string.

For `C[C@@H]1[C@H](O)[C@@H](C)/C=C/C=C/C=C/C=C/C=C/C=C/C=C/[C@H](O[C@@H]2O[C@H](C)[C@@H](O)[C@H](N)[C@@H]2O)C[C@@H]2O[C@](O)(C[C@@H](O)C[C@@H](O)[C@H](O)CC[C@@H](O)C[C@@H](O)CC(=O)O[C@H]1C)C[C@H](O)[C@H]2C(=O)O` [AmB, amphotericin B], in assay [1], the “AmB concentration beyond which complete killing was observed” value is more than 1.77 µg/mL. Further, in assay [2] (AmB concentrations greater than or equal to 3.7 μg/ml, versus shear removed biofilm, stationary and exponential phase planktonic cells), the “activity of basal blastospores relative to other populations” value is recorded as “clearly more active than the other three populations”. Moreover, the “AmB concentration up to which metabolic activity was exhibited” value in assay [2] (basal blastospore subpopulation in situ, highest tested concentration, 1 h AmB treatment) was determined as 28.26 µg/mL. In assay [2] (lower AmB concentrations (<1.77 μg/ml)), the “loss of metabolic activity of basal blastospores relative to other samples” value is recorded as “greater loss of metabolic activity than the other samples”. Also, in assay [3] (exponential phase planktonic cells, KMA, 1 h AmB treatment), the “AmB concentration beyond which complete killing is achieved” value is more than 1.77 µg/mL. For the same compound, the “AmB concentration up to which viability is detected” value in assay [3] (modified medium, exponential-phase cells, alamarBlue, t-threshold (FIG. 5)) is 1.77 µg/mL. Besides, the “AmB concentration up to which cells survive” value in assay [3] (stationary phase planktonic cells, alamarBlue, t-threshold, 1 h AmB treatment (FIG. 6)) was 3.55 µg/mL. Also, the “AmB concentration up to which viability is detected (detection limit)” value in assay [3] (unmodified medium, exponential-phase cells, alamarBlue, t-threshold (FIG. 5)) is 0.88 µg/mL.
